Measured values published in patent publication US12528801B2 (Givaudan SA, priority 2019, dated 2026).

Experiments:
hTRPM8 = molecular target: T1, hTRPM8 (Homo sapiens, UniProt Q7Z2W7); assay: Assay on TRPM8 modulators: calcium imaging (Fluo-4, Flexstation) in HEK293 cell line stably expressing hTRPM8; type: cell-based; settings: HEK293 cells stably expressing hTRPM8; calcium influx, Fluo-4, Flexstation 3; sigmoidal dose-response fit
T1 construct: expressed in transfected cells
Outline: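 HEK293 cells stably expressing hTRPM8 were loaded with Fluo-4 AM plus probenecid and kept in HEPES buffer, pH 7.4. Calcium influx to serially diluted compounds was recorded for 120 s. Maximal activation was referenced to solvent control and 31.6 μM menthol, with EC values from sigmoidal dose-response fits.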

[1] = system: trained group of panelists; assay: Sensory studies in aqueous solution (trained panel, mouth swill); type: in vivo, human; settings: 10 ppm in aqueous solution; for Time of max. cooling / Max. cooling: 20 mL swilled in the mouth for 60 seconds; for Max. cooling / Cooling after 1 h: panel-averaged cooling score, scale 0 to 10; for Cooling after 1 h: 1 h after swilling
Description: The compounds as listed below in Table 2 were dissolved at a concentration of 1 wt-% in propylene glycol. These solutions were then dispensed in appropriate quantities into deionized water containing 0.5 wt-% Poloxamer 407 (which is a hydrophilic non-ionic surfactant, e.g., commercially available from SigmaAldrich) and 0.25 wt-% Cremaphor® RH40 (obtained from BASF) as solubilizer, to obtain the desired final concentration of 10 ppm (parts per million) of the respective compound.
A trained group of panelists evaluated the aqueous solutions containing test compound by swilling 20 mL of the solution in the mouth for 60 seconds, followed by spitting, without rinsing the mouth afterwards for the duration of the evaluation. Panelists evaluated and recorded the cooling performance as well as other sensorial and organoleptic attributes at different timepoints over a period of two hours. Cooling performance was rated on a scale from 0 to 10 with 0 being no effect and 10 being freezing. Scores were averaged for all panelists and the cooling intensity qualified as “none” (score of 0), “low” (score above 0, up to 1), “medium” (score above 1, up to 4) “strong” (score above 4, up to 8) and “freezing” (score above 8), which are provided in Table 2.

[2] = system: trained group of panelists; assay: Sensory studies in model dentifrice (trained panel, tooth brushing); type: in vivo, human; settings: 40 ppm in model unflavored dentifrice; for Cooling after 1 h: 1 h after brushing; for Cooling after 1 h / Max. cooling: panel-averaged score 0 to 10; for Time of max. cooling / Max. cooling: brushing with 1 g for 60 seconds; for Max. cooling: stock in propylene glycol (A) or benzyl alcohol (B)
Description: The compounds listed in Table 3 were dissolved at a concentration of 1 wt-% in propylene glycol^A or benzyl alcohol^B (respective solvents indicated in Table 3). These solutions were then dispersed in appropriate quantities to obtain the desired final concentration of 40 ppm (parts per million) of the test compound into a model, unflavored dentifrice, the formula of which is given below (ingredients obtained from the suppliers respectively indicated in parenthesis).
A trained group of panelists evaluated the dentifrice containing a compound of formula (I), by brushing their teeth with 1 g of the dentifrice using a toothbrush for 60 seconds, followed by spitting, without rinsing the mouth afterwards for the duration of the evaluation. Panelists evaluated and recorded the cooling performance as well as other sensorial and organoleptic attributes at different timepoints over a period of two hours. Cooling performance was rated on a scale from 0 to 10 with 0 being no effect and 10 being freezing. Scores were averaged for all panelists and the cooling intensity qualified as “none” (score of 0), “low” (score above 0, up to 1), “medium” (score above 1, up to 4) “strong” (score above 4, up to 8) and “freezing” (score above 8), which are summarized below in Table 3.

T1 sequence (Q7Z2W7 whole entry): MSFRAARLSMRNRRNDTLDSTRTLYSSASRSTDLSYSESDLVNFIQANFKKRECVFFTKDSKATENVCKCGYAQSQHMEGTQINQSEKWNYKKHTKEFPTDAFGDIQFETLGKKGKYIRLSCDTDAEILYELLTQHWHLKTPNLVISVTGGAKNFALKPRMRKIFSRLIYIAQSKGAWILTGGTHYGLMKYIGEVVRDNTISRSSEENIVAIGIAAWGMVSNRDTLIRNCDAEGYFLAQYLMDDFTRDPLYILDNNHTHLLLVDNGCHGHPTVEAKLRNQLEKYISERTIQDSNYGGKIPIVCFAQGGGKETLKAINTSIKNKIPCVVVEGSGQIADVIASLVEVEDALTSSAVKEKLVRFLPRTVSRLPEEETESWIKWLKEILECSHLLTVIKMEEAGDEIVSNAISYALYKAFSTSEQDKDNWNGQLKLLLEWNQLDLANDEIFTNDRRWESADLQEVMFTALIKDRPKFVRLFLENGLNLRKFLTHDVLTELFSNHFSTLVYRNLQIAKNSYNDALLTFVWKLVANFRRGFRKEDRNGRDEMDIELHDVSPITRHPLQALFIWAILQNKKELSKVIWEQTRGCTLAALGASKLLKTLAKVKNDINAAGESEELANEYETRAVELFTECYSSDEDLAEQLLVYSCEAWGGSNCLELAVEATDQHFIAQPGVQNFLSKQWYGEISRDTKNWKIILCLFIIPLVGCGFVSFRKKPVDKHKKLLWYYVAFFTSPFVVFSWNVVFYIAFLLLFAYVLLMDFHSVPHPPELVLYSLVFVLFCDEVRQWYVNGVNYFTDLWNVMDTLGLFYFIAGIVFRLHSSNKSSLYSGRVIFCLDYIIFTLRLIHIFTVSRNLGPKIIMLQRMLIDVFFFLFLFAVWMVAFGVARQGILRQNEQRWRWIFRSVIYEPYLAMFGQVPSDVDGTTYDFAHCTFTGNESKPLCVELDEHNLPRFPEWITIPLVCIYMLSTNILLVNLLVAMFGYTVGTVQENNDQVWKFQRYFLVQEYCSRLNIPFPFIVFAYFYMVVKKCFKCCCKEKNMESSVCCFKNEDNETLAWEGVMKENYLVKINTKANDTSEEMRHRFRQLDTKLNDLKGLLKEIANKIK

Row | Structure (SMILES) | EC50 (hTRPM8) | other results
1 | CSC(C)C(=O)N1CCCCC1c1nc(-c2ccncc2)c[nH]1 (centres unmarked) [Compound 114, 2-(methylthio)-1-(2-(4-(pyridin-4-yl)-1H-imidazol-2-yl)piperidin-1-yl)propan-1-one] | 300 to 1000 nM | –
2 | CCOC(C)C(=O)N1CCCCC1c1ncc(-c2cccc(F)c2)[nH]1 (centres unmarked) [Compound 153, 2-ethoxy-1-(2-(5-(3-fluorophenyl)-1H-imidazol-2-yl)piperidin-1-yl)propan-1-one] | 1000 to 35000 nM | –
3 | CCOC(C(=O)N1CCCCC1c1nc(-c2ccccc2)c[nH]1)C1CCCC1 (centres unmarked) [Compound 149, 2-cyclopentyl-2-ethoxy-1-(2-(4-phenyl-1H-imidazol-2-yl)piperidin-1-yl)ethan-1-one] | 1000 to 35000 nM | –
4 | CSC(C)C(=O)N1CCCCC1c1ncc(-c2cccc(F)c2F)[nH]1 (centres unmarked) [Compound 53, 1-(2-(5-(2,3-difluorophenyl)-1H-imidazol-2-yl)piperidin-1-yl)-2-(methylthio)propan-1-one] | 50 to 300 nM | –
5 | CCC(C)C(=O)N1CCCCC1c1ncc(Br)[nH]1 (centres unmarked) [Compound 194, 1-(2-(5-bromo-1H-imidazol-2-yl)piperidin-1-yl)-2-methylbutan-1-one] | 1000 to 35000 nM | –
6 | CC1CC(C(=O)N2CCCCC2c2nc(-c3ccccc3)c[nH]2)CO1 (centres unmarked) [Compound 7, (5-methyltetrahydrofuran-3-yl)(2-(4-phenyl-1H-imidazol-2-yl)piperidin-1-yl)methanone] | 1000 to 35000 nM | –
7 | COC(=O)c1ccc(-c2cnc(C3CCCCN3C(=O)C(C)SC)[nH]2)cc1 (centres unmarked) [Compound 188, methyl 4-(2-(1-(2-(methylthio)propanoyl)piperidin-2-yl)-1H-imidazol-5-yl)benzoate] | 50 to 300 nM | –
8 | CCC(C)C(=O)N1CCCCC1c1ncc(-c2ccc(CO)cc2)[nH]1 (centres unmarked) [Compound 202, 1-(2-(5-(4-(hydroxymethyl)phenyl)-1H-imidazol-2-yl)piperidin-1-yl)-2-methylbutan-1-one] | 50 to 300 nM | –
9 | CC(C(=O)N1CCCCC1c1nc(-c2ccccc2)c[nH]1)C1CC1 (centres unmarked) [Compound 151, 2-cyclopropyl-1-(2-(4-phenyl-1H-imidazol-2-yl)piperidin-1-yl)propan-1-one] | 50 to 300 nM | –
10 | CSC(C)C(=O)N1CCCCC1c1nc(C)c(-c2ccccc2)[nH]1 (centres unmarked) [Compound 47, 1-(2-(4-methyl-5-phenyl-1H-imidazol-2-yl)piperidin-1-yl)-2-(methylthio)propan-1-one] | 50 to 300 nM | –
11 | CSC(C)C(=O)N1CCCCC1c1nc(-c2ccccc2O)c[nH]1 (centres unmarked) [Compound 24, 1-(2-(4-(2-hydroxyphenyl)-1H-imidazol-2-yl)piperidin-1-yl)-2-(methylthio)propan-1-one] | 50 to 300 nM | –
12 | CSC(C)C(=O)N1CCCCC1c1nc2ccccc2[nH]1 (centres unmarked) [Compound 15, 1-(2-(1H-benzo[d]imidazol-2-yl)piperidin-1-yl)-2-(methylthio)propan-1-one] | 1000 to 35000 nM | –
13 | CCC(=O)N1CCCCC1c1nc(-c2ccccc2)c[nH]1 (centres unmarked) [Compound 52, 1-(2-(4-phenyl-1H-imidazol-2-yl)piperidin-1-yl)propan-1-one] | 1000 to 35000 nM | –
14 | CSC(C)C(=O)N1CCCCC1c1nnc(-c2ccc(C)cc2)o1 (centres unmarked) [Compound 128, 2-(methylthio)-1-(2-(5-(p-tolyl)-1,3,4-oxadiazol-2-yl)piperidin-1-yl)propan-1-one] | 300 to 1000 nM | –

Second part, led by results:

Row | EC50 (hTRPM8) | Structure (SMILES) | other results
15 | < 50 nM | CCC(C)C(=O)N1CCCCC1c1ncc(-c2ccc(C)cc2)[nH]1 (centres unmarked) [Compound 164, 2-methyl-1-(2-(5-(p-tolyl)-1H-imidazol-2-yl)piperidin-1-yl)butan-1-one] | Time of max. cooling [1]: 10 min; Max. cooling [1]: S (S = Strong); Cooling after 1 h [1]: M (M = medium); Cooling after 1 h [2]: M (M = medium); Time of max. cooling [2]: 10 min; Max. cooling [2]: S (S = Strong)
16 | < 50 nM | CSC(C)C(=O)N1CCCCC1c1ncc(-c2ccccc2)[nH]1 (centres unmarked) [Compound 135, 2-(methylthio)-1-(2-(5-phenyl-1H-imidazol-2-yl)piperidin-1-yl)propan-1-one] | Time of max. cooling [1]: 10 min; Max. cooling [1]: M (M = medium); Cooling after 1 h [1]: L (L = Low)
17 | < 50 nM | C=CC(C)C(=O)N1CCCCC1c1ncc(-c2ccc(C)cc2)[nH]1 (centres unmarked) [Compound 163, 2-methyl-1-(2-(5-(p-tolyl)-1H-imidazol-2-yl)piperidin-1-yl)but-3-en-1-one] | Time of max. cooling [1]: 10 min; Max. cooling [1]: S (S = Strong); Cooling after 1 h [1]: M (M = medium); Cooling after 1 h [2]: M (M = medium); Time of max. cooling [2]: 5 min; Max. cooling [2]: M (M = medium)
18 | < 50 nM | CS[C@H](C)C(=O)N1CCCC[C@@H]1c1ncc(-c2ccc(C)cc2)[nH]1 [Compound 11, (R)-2-(methylthio)-1-((R)-2-(5-(p-tolyl)-1H-imidazol-2-yl)piperidin-1-yl)propan-1-one] | Time of max. cooling [1]: 10 min; Max. cooling [1]: S (S = Strong); Cooling after 1 h [1]: M (M = medium); Cooling after 1 h [2]: M (M = medium); Time of max. cooling [2]: 20 min; Max. cooling [2]: S (S = Strong)
19 | < 50 nM | CSC(C)C(=O)N1CCCCC1c1ncc(-c2ccc(C)s2)[nH]1 (centres unmarked) [Compound 127, 2-(methylthio)-1-(2-(5-(5-methylthiophen-2-yl)-1H-imidazol-2-yl)piperidin-1-yl)propan-1-one] | Time of max. cooling [1]: 10 min; Max. cooling [1]: S (S = Strong); Cooling after 1 h [1]: M (M = medium)
20 | < 50 nM | C=CC(C)(C)C(=O)N1CCCCC1c1ncc(-c2ccc(C)cc2)[nH]1 (centres unmarked) [Compound 142, 2,2-dimethyl-1-(2-(5-(p-tolyl)-1H-imidazol-2-yl)piperidin-1-yl)but-3-en-1-one] | –
21 | < 50 nM | CSC(C)C(=O)N1CCCCC1c1nc(-c2cc(F)cc(F)c2)c[nH]1 (centres unmarked) [Compound 26, 1-(2-(4-(3,5-difluorophenyl)-1H-imidazol-2-yl)piperidin-1-yl)-2-(methylthio)propan-1-one] | –
22 | < 50 nM | CSC(C)(C)C(=O)N1CCCCC1c1ncc(-c2ccc(C)cc2)[nH]1 (centres unmarked) [Compound 171, 2-methyl-2-(methylthio)-1-(2-(5-(p-tolyl)-1H-imidazol-2-yl)piperidin-1-yl)propan-1-one] | –
23 | 50 to 300 nM | CC(C)C(C)C(=O)N1CCCCC1c1nc(-c2ccccc2)c[nH]1 (centres unmarked) [Compound 145, 2,3-dimethyl-1-(2-(4-phenyl-1H-imidazol-2-yl)piperidin-1-yl)butan-1-one] | –
24 | 50 to 300 nM | CSC(C)C(=O)N1CSCC1c1ncc(-c2ccc(C)cc2)[nH]1 (centres unmarked) [Compound 139, 2-(methylthio)-1-(4-(5-(p-tolyl)-1H-imidazol-2-yl)thiazolidin-3-yl)propan-1-one] | –
25 | < 50 nM | CSC(C)C(=O)N1CCCCC1c1ncc(-c2ccc(C(C)=O)cc2)[nH]1 (centres unmarked) [Compound 74, 1-(2-(5-(4-acetylphenyl)-1H-imidazol-2-yl)piperidin-1-yl)-2-(methylthio)propan--one] | –
26 | < 50 nM | CSC(C)C(=O)N1CCCCC1c1ncc(-c2ccc(C#N)c(F)c2)[nH]1 (centres unmarked) [Compound 156, 2-fluoro-4-(2-(1-(2-(methylthio)propanoyl)piperidin-2-yl)-1H-imidazol-5-yl)benzonitrile] | –
27 | < 50 nM | CCCC(C)C(=O)N1CCCCC1c1ncc(-c2ccc(C)cc2)[nH]1 (centres unmarked) [Compound 168, 2-methyl-1-(2-(5-(p-tolyl)-1H-imidazol-2-yl)piperidin-1-yl)pentan-1-one] | –
28 | < 50 nM | CSC(C)C(=O)N1CCCCC1c1ncc(-c2cc(F)c(F)cc2F)[nH]1 (centres unmarked) [Compound 121, 2-(methylthio)-1-(2-(5-(2,4,5-trifluorophenyl)-1H-imidazol-2-yl)piperidin-1-yl)propan-1-one] | –
29 | < 50 nM | CSC(C)C(=O)N1CCCCC1c1ncc(-c2ccc(Cl)cc2)[nH]1 (centres unmarked) [Compound 77, 1-(2-(5-(4-chlorophenyl)-1H-imidazol-2-yl)piperidin-1-yl)-2-(methyltbio)propan-1-one] | –
